Measurements as given in US8465983B1, “Detection and delivery systems utilizing supported lipid bilayers” (priority 2005, dated 2013).

How the values were obtained:
[1] = Lipid bilayers on MS-PPE as barriers to superquenching by AQS, flow cytometry; conditions: 10 μM AQS
Description: FIG. 15 graphically illustrates flow cytometric evaluations of different lipids that involved formation of supported lipid bilayers on MS-PPE for the purpose of forming a barrier to quenching by AQS. Lipids tested were 2 mM DPPC, 1 mM egg-PC, and 2 mM DMPG. Fluorescence was normalized to that of MS-PPE without lipids and in absence of AQS. −AQS and +AQS refer to absence and presence of 10 μM AQS. The errors bars represent SD of means of normalized histograms obtained for triplicates.
Small unilamellar vesicles (SUVs) were prepared using a 2 mM solution of DPPC, 1 mM egg-PC, or 2 mM DMPG in chloroform. The lipid was dried by nitrogen gas followed by vacuum. The dried lipid was resuspended in phosphate buffer saline (PBS), pH 7.4, and incubated at 37° C. for 10 min, then sonicated to optical clarity in a sonication bath (Branson Cleaning Equipment Co., Shelton, Conn.).
Lipid bilayers were assembled on microspheres as previously described (Buranda et al. Langmuir 19:1654-1663 (2003); Bayerl & Bloom, Biophys J 58:357-362 (1990)). […]
Bead suspensions of 2.5×10^5 PPE-coated microspheres in 200 μL PBS were analyzed using a FACScan flow cytometer (Becton-Dickinson, Sunnyvale, Calif.) with excitation at 488 nm. Fluorescence signals were acquired on the FL-1 channel (525 nm) using log amplification and analyzed with the CellQuest software.

[2] = system: 80:20 (molar ratio) DMPG and DMPC bilayer on porous silica beads; experiment: Suspension study: melittin on DMPG/DMPC 80:20 bilayers on fluorescein-containing porous beads; type: biochemical; conditions: 220 μM melittin (FIG. 6 legend prints 220 pM), 25° C.
Description: (§1) Experimental procedures were similar to the TRITON X-100 detergent based analysis. For experiments with α-toxin, three different toxin concentrations: 15, 45 and 250 μg/mL were used at 37° C. and 25° C. Beads coated with EPC were used. In the experiments with melittin, 220 μM melittin was used with beads coated with either 100% EPC, 10:90 (molar ratio) mixture of DMPG and EPC or an 80:20 mixture of DMPG and DMPC. All melittin experiments were conducted at 25° C.
In view of the results shown in FIG. 5, the effects of melittin on other mixtures of lipids were examined. […] A 80:20 mixture (molar ratio) of DMPG and DMPC was used to form the lipid bilayers used in this experiment. The increase in fluorescence intensity due to the membrane-melittin interaction, which results in the release of dye from porous beads was about 10 fold. Although this release was not as high as that observed when using TRITON X-100 detergent, it is notable in comparison to the release with α-toxin.

[3] = system: 90:10 (molar ratio) EPC and DMPG bilayer on porous silica beads; experiment: Suspension study: melittin on EPC/DMPG 90:10 bilayers on fluorescein-containing porous beads; type: biochemical; conditions: highly concentrated melittin, 25° C.
Description: as §1
The interaction of highly concentrated melittin solutions was examined with membranes supported on fluorescein containing porous beads, where the membranes contained 100% EPC or a 90:10 mixture (molar ratio) of EPC and DMPG (a negatively charged lipid). […] In the absence of peptide, the amount of dye leakage from the EPC/DMPG beads was similar to that for EPC coated beads.

[4] = system: DMPG lipid bilayer supported on MS-PPE; experiment: Superquenching flow cytometric assay for disruption of DMPG lipid bilayer supported on MS-PPE; type: biochemical; conditions: for quenching of the MS-PPE after addition of peptide / association constant with DMPG (reciprocal of the point of half saturation): 10 μM AQS; for quenching of the MS-PPE after addition of peptide: sMLT 3.8 μM, nMLT 1.6 μM, TRITON X-100 0.25% (w/v); for association constant with DMPG (reciprocal of the point of half saturation): binding curves, flow cytometry
Description: Lipid bilayers were disrupted by adding TRITON X-100 detergent to the bead suspension to a final concentration of 0.25% (w/v).
Bead suspensions of 2.5×10^5 DMPG-coated MS-PPE in 200 μL of PBS were analyzed using a FACScan flow cytometer (Becton-Dickinson, Sunnyvale, Calif.) with excitation at 488 nm. Fluorescence signals were acquired on FL-1 channel (525 nm) using log amplification and analyzed with the CellQuest software. Kinetic analysis of disruption of supported lipid bilayer by melittin was performed by acquiring real-time data with continuous mixing of samples (10^6 MS-PPE in 800 μl of PBS) using a magnetic stirrer. The raw data were analyzed using IDL Query software developed by Bruce Edwards (Cancer Center, University of New Mexico, Albuquerque, N. Mex.).
Because an anionic lipid was used to form a lipid bilayer around MS-PPE, it was expected that MLT will disrupt the DMPG lipid bilayer by such a detergent-like action. This was tested by adding 10 μM AQS to DMPG-coated MS-PPE followed by treatment with one of the following: TRITON X-100 detergent, synthetic MLT (sMLT), or natural MLT (nMLT) and immediately reading the fluorescence by flow cytometry. […] These histograms resemble the ones reported previously for MS-PPE, without a lipid coating, in absence and in presence of AQS.
From FIG. 18, the association constant (corresponding to the reciprocal of the point of half saturation) for nMLT and sMLT with DMPG were 5×10^6 M^−1 and 1.7×10^6 M^−1, respectively. […] Lower concentrations of nMLT, in comparison to sMLT, were required to disrupt the DMPG lipid bilayer. This might be attributed to the fact that nMLT contains some phospholipase A2 (PLA2) as a contaminant. PLA2 has a high affinity for anionic phospholipids, with an association constant of 0.5×10^10 M^−1 (Kim et al., Anal. Chem. 250, 109-116 (1997)), which is about 3000 fold higher than that of MLT. Although PLA2 activity requires calcium, which is not present in the experimental system, it has been reported that even upon addition of EDTA to natural MLT, PLA2 maintains its activity, probably due to formation of a tight complex with calcium with PLA2 (Dempsey, C. E. Biochim. Biophys. Acta 1990, 1031, 143-161).
The kinetics of disruption of supported lipid bilayer by MLT were monitored by measuring real-time changes in fluorescence intensity by flow cytometry (FIG. 19). Suspensions of 10^6 DMPG-coated MS-PPE in 800 μL of PBS were treated with AQS at a final concentration of 10 μM, then with either sMLT, TRITON X-100 detergent, or no treatment. […] Treatment with sMLT in the absence of AQS led to an increase in normalized fluorescence (FIG. 19, trace A). This can be attributed to disruption of the lipid bilayer by sMLT, and is consistent with a reversal of the slight quenching of fluorescence caused by the formation of a DMPG lipid bilayer over MS-PPE. Addition of AQS alone to DMPG-coated MS-PPE (FIG. 19, trace C) led to a 20% reduction in fluorescence as reported earlier. Addition of TRITON X-100 detergent to DMPG-coated MS-PPE after the addition of AQS (first dip in trace E, FIG. 19) caused immediate decrease in fluorescence to ˜10% of its original value (second dip in trace E, FIG. 19). In contrast, addition of sMLT, after the addition of AQS, (FIG. 19, trace D) led to a gradual reduction of fluorescence intensity to ˜20% of the original value. Although MLT forms dimers at high concentrations (Dempsey, C. E. Biochim. Biophys. Acta 1990, 1031, 143-161), it is monomeric at the concentrations used in this study. On the other hand, TRITON X-100 detergent forms micelles at the concentration used in this study.

[5] = system: EPC lipid bilayer on porous silica beads; experiment: Suspension study: disruption of EPC bilayers on fluorescein-containing porous silica beads, release of dye into supernatant; type: biochemical; conditions: all three concentrations 15, 45 and 250 μg/mL
Description: Lipid coatings on beads were disrupted using 10% TRITON X-100 detergent. Each sample in micro-centrifuge tubes contained 5 mg of lipid bilayer coated, fluorescein entrapped beads in 200 μL of Tris buffer. Samples were centrifuged and 100 μL aliquots of supernatant were mixed with either 100 μL of Tris buffer or 100 μL of 10% TRITON X-100 detergent in separate centrifuge tubes. The fluorescence intensity of each mixture was immediately (time=0) recorded. Each mixture was mixed with its respective bead sample in centrifuge tube and incubated at 25° C. in the dark. After 30 min, samples were centrifuged and fluorescent intensity of the supernatants was measured. Beads were resuspended in their respective supernatants. Fluorescence intensity was again measured at 90 and 150 min.
as §1
Previous suspension studies on disruption of lipid bilayers have been performed with small unilamellar vesicles where disruption of the lipid bilayer membranes was detected by monitoring the unquenching of a highly concentrated, encapsulated dye. In the present work disruption was monitored via release of fluorescein dye from porous beads, by measuring the increase in fluorescence intensity of the supernatant at 520 nm. Beads were first suspended in Tris buffer containing the disruptor. After selected time periods, beads were sedimented by centrifuging and a portion of the supernatant was taken for the measurement. The measured portion was added back to the bead sample to permit continuous monitoring. The scattering effect that was present in vesicle based studies was minimized by measuring only the supernatant after centrifugation of the beads.

[6] = system: supported lipid bilayer surrounding a porous bead that contains fluorescein; experiment: Kinetics of supported lipid bilayer disruption by α-toxin, pH gradient, flow cytometry; type: biochemical
Description: FIGS. 4A-B illustrates the effects of alpha-toxin on lipid bilayer integrity. FIG. 4A graphically illustrates dose-dependent release of fluorescent dye from a lipid bilayer coated microbead after introduction of different concentrations of alpha-toxin, a membrane-associated pore-forming protein from Staphylococcus aureus. The normalized fluorescence intensity (at 520 nm) of the supernatant is plotted versus time for EPC-coated, fluorescein filled porous beads when using different concentrations of α-toxin added. 10% Triton was added after 150 min. FIG. 4B illustrates the kinetics of disrupting a supported lipid bilayer by α-toxin as monitored by recording changes in fluorescence intensity every 2 minutes by flow cytometry. The lipid bilayer surrounded a porous bead that contains a pH-reactive molecule (fluorescein), and the pH outside the beads was adjusted to 11.0, whereas inside the beads the pH was 2.6. As illustrated, increasing amounts of c′-toxin increases the fluorescence emitted from within the beads.
In another experiment a lipid bilayer surrounding a porous bead that contains a pH-reactive molecule (fluorescein) was exposed to α-toxin. The pH outside the beads was adjusted to 11.0, whereas inside the beads the pH was 2.6. The kinetics of disruption of supported lipid bilayer by α-toxin were monitored by recording changes in fluorescence intensity every 2 minutes by flow cytometry. For the first 8 minutes there was no significant change in fluorescence intensity (FIG. 4B). However, after 8 minutes there was a gradual increase in fluorescence intensity (FIG. 4B) resulting from insertion of α-toxin into the supported lipid bilayer thus forming channels permeable to hydrogen cations and hydroxyl ions, which reduces the difference in the pH outside and inside the microspheres. […] This can be attributed to insertion of many α-toxin channels at this high concentration leading to disruption of the lipid bilayer and immediate equilibration of the pH inside and outside the porous microspheres.

Question: Which results are given for CCCCCCCCCCCCCCCC(=O)OC[C@H](COP(=O)([O-])OCC[N+](C)(C)C)OC(=O)CCCCCCCCCCCCCCC [DPPC, 1,2-dipalmitoyl-sn-glycero-3-phosphatidylcholine]?
Answer: fluorescence with quencher relative to MS-PPE and quencher without the lipid [1]: ~10 fold; reduction (quenching) of polymer fluorescence of lipid-coated MS-PPE on addition of AQS [1]: ~40%

Question: With CC[C@H](C)[C@H](NC(=O)CN)C(=O)NCC(=O)N[C@@H](C)C(=O)N[C@H](C(=O)N[C@@H](CC(C)C)C(=O)N[C@@H](CCCCN)C(=O)N[C@H](C(=O)N[C@@H](CC(C)C)C(=O)N[C@H](C(=O)N[C@H](C(=O)NCC(=O)N[C@@H](CC(C)C)C(=O)N1CCC[C@H]1C(=O)N[C@@H](C)C(=O)N[C@@H](CC(C)C)C(=O)N[C@H](C(=O)N[C@@H](CO)C(=O)N[C@@H](Cc1c[nH]c2ccccc12)C(=O)N[C@H](C(=O)N[C@@H](CCCCN)C(=O)N[C@@H](CCCNC(=N)N)C(=O)N[C@@H](CCCCN)C(=O)N[C@@H](CCCNC(=N)N)C(=O)N[C@@H](CCC(N)=O)C(=O)N[C@@H](CCC(N)=O)C(N)=O)[C@@H](C)CC)[C@@H](C)CC)[C@@H](C)O)[C@@H](C)O)C(C)C)C(C)C [melittin] as the compound, how does the “increase in fluorescence intensity due to release of dye” value [2] read?
Answer: The value was “about 10 fold”.

Question: What about the “release of dye from EPC/DMPG coated beads compared with 100% EPC coated beads” value [3] of the same compound?
Answer: The value was “slightly higher”.

Question: For “nMLT: natural melittin from Sigma, contains some phospholipase A2 as a contaminant”, which “quenching of the MS-PPE after addition of peptide” value [4] is on record?
Answer: Its value is “comparable to that occurring on addition of TRITON X-100 detergent”.

Question: And the “association constant with DMPG (reciprocal of the point of half saturation)” value [4]?
Answer: The value was 5e+06 M⁻¹.

Question: For “sMLT: synthetic melittin obtained from Sigma”, which “quenching of the MS-PPE after addition of peptide” value [4] is on record?
Answer: Its value is “comparable to that occurring on addition of TRITON X-100 detergent”.

Question: And the “fluorescence intensity after addition, % of original value (real-time kinetics)” value ([4]; 10^6 DMPG-coated MS-PPE in 800 μL PBS, after 10 μM AQS)?
Answer: The value was roughly 20%.

Question: What about the “association constant with DMPG (reciprocal of the point of half saturation)” value [4] of the same compound?
Answer: The value was 1.7e+06 M⁻¹.

Question: With “α-toxin: membrane active pore-forming protein secreted by Staphylococcus aureus, ˜33 kDa” as the compound, how does the “increase in fluorescence intensity after 150 min” value ([5]; 25° C.) read?
Answer: Its value is “about 3 fold”.

Question: What about the “increase in fluorescence intensity after 150 min” value ([5]; 37° C.) of the same compound?
Answer: Its value is “about 6.5 fold”.

Question: And the “concentration at which increase in fluorescence intensity reached its maximum” value ([6]; pH 11.0 outside, pH 2.6 inside beads)?
Answer: The value was 15 µg/mL.

Question: And the “time without significant change in fluorescence intensity before gradual increase” value ([6]; pH 11.0 outside, pH 2.6 inside beads, read every 2 minutes)?
Answer: Its value is 8 min.

Question: What about the “change in fluorescence intensity” value ([6]; α-toxin 45 μg/mL) of the same compound?
Answer: The value was “did not cause a change in fluorescence intensity different from the baseline”.
